Assay results from patent US12692239B2, “Methods and compositions for targeting Tregs using CCR8 inhibitors” (Nanjing Immunophage Biomedical Co., Ltd., priority 2020, dated 2026).
Counter-ions that a name gives are not always drawn.

Target: CCR8 (Homo sapiens, UniProt P51685)
Assay: Tango assay (Tango-CCR8-Gal4-CHO-K1 cells, CCL1-stimulated, ONE-Glo luminescence)
Conditions: Tango Assay IC50, Inhibition of CCR8 Tango cell in vitro
Method: The Tango cell line was used to monitor antagonists-mediated receptor inactivation.
Tango cells (Tango-CCR8-Gal4-CHO-K1 cells constructed by Genomeditech) were passaged in complete medium (F12K, 10% FBS, 1% penicillin-streptomycin, 4 g/ml puromycin, 4 g/ml blasticidin and 100 g/ml hygromycin) in incubator (37° C., 5% CO2).
Twenty-four hours before the seed, cells were cultured in 10 or 15 cm dish at a density of 30% confluence in culture medium (F12K, 10% FBS, 1% penicillin-streptomycin).
Cells were suspended in starving medium (F12K, 1% FBS, 1% penicillin-streptomycin) before being seeded into black/clear 96 wells (1×10^4 cells/70 μl/well) and incubated for 6 hours (37° C., 5% CO2). Different concentration of compound, dissolved in DMSO, was into the 96-well plates, with 50 μl in each well, and incubation continued for 1 hour at 37° C.
After the incubation, the medium was removed and the 96-well plate was put in −80° C. freezer for an hour or longer. The plate and the ONE-Glo reagent (Promega, Catalog Number: E6110) which was frozen in −80° C., were taken out and rewarmed to room temperature. […] After incubating for 10 minutes at room temperature, the plate was read using microplate luminescence reader at 560 nm.
The microplate reader records luminescence in relative luminescence units (RLU).

CCR8, sequence (P51685 whole entry, the tested form may be a part): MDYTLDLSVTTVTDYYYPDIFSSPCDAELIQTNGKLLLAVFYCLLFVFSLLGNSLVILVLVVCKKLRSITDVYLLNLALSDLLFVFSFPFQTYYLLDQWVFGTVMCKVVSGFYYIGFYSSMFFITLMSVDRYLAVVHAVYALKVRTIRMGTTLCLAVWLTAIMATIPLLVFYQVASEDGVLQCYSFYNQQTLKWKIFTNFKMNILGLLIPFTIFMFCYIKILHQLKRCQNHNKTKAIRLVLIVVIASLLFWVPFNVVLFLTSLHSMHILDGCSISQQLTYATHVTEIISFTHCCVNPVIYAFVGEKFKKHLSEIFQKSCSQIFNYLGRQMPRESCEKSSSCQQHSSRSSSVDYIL

## Cc1ccccc1C(=O)Nc1c(C)cc(S(=O)(=O)N[C@H](C)C2CCNCC2)cc1Cl [Compound 180A, (R)-N-(2-chloro-6-methyl-4-(N-(1-(piperidin-4-yl)ethyl)sulfamoyl)phenyl)-2-methylbenzamide hydrochloride]
  IC50: 9 nM
